The record followed here is PubChem BioAssay (NCI).

In general, TGI refers to the concentration giving total growth inhibition. A high value points to lower sensitivity of the cells. The term GI50 denotes the concentration that inhibits growth by half.

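48-hour exposure; five concentrations; linearly interpolated endpoints. The concentration for 50% growth inhibition is given as GI50. TGI: concentration producing complete growth inhibition.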

Some test systems named below: OVCAR-5 ovarian; SN12C renal; SF-268 CNS; IGROV1 ovarian; NCI/ADR-RES ovarian; CAKI-1 renal; OVCAR-4 ovarian; HL-60(TB) leukemia; A498 renal; MDA-N.
Assay in all cases: DTP human tumour cell line panel, 48 h

With `COC[C@H](Cc1ccccc1)N=Cc1ccccc1`, the TGI in the assay on OVCAR-5 ovarian, in the assay with SN12C renal, in the assay with SF-268 CNS, with IGROV1 ovarian, in the assay with NCI/ADR-RES ovarian and in the assay with CAKI-1 renal was above 100 µM in each case. Also, in the assay with OVCAR-4 ovarian, the TGI is above 100 µM.

Turning to `CC(C)(C)OC(=O)N(CCCN)CCCCN(CCCN)C(=O)OC(C)(C)C`, the concentration for total growth inhibition (TGI) in the assay on OVCAR-5 ovarian, in the assay on SF-268 CNS, in the assay on HL-60(TB) leukemia, with IGROV1 ovarian, in the assay with A498 renal and in the assay with NCI/ADR-RES ovarian was above 100 µM in each case. Further, the TGI with CAKI-1 renal and in the assay with OVCAR-4 ovarian was above 100 µM each time.

Regarding `Cc1cccc2ns[s+]c12`, the TGI in the assay on OVCAR-5 ovarian, in the assay with SN12C renal, with SF-268 CNS, in the assay on HL-60(TB) leukemia, in the assay on IGROV1 ovarian and with A498 renal was above 100 µM throughout. Also, the concentration for total growth inhibition (TGI) in the assay on CAKI-1 renal and with OVCAR-4 ovarian was above 100 µM throughout.

In the case of `CN1C(=N\S(=O)(=O)c2ccc(Cl)cc2)/C(=N/N=P(c2ccccc2)(c2ccccc2)c2ccccc2)c2ccccc21`, the total growth inhibition concentration (TGI) in the assay with OVCAR-5 ovarian, with SN12C renal, with SF-268 CNS, in the assay on IGROV1 ovarian, in the assay with A498 renal and in the assay on CAKI-1 renal was above 100 µM in each case. Further, in the assay on OVCAR-4 ovarian, the TGI is above 100 µM.

In the case of `O=C(Cl)c1cc([N+](=O)[O-])cc([N+](=O)[O-])c1`, the TGI in the assay with OVCAR-5 ovarian, with SF-268 CNS, in the assay with HL-60(TB) leukemia, in the assay with IGROV1 ovarian, with CAKI-1 renal and in the assay on OVCAR-4 ovarian was above 100 µM each time.

Turning to `Cc1ccc(CCNC(=S)SCC(NC(=O)CCC(N)C(=O)O)C(=O)NCC(=O)O)cc1` (stereo not drawn), the TGI in the assay on OVCAR-5 ovarian was 6.11 µM; with SN12C renal, 3.84 µM; with SF-268 CNS, 8.29 µM; in the assay on HL-60(TB) leukemia, 2.6 µM; in the assay with IGROV1 ovarian, 4.77 µM; in the assay on A498 renal it was 6.25 µM. Moreover, the TGI with CAKI-1 renal stood at 3.44 µM; in the assay on OVCAR-4 ovarian, 7.41 µM.

As for `CCCCCCCCCCCCCCCCCc1nc(C#N)c(N)o1`, the concentration for total growth inhibition (TGI) is above 100 µM in the assay on OVCAR-5 ovarian; above 100 µM in the assay on SN12C renal; above 100 µM with SF-268 CNS; 69.6 µM with HL-60(TB) leukemia; 36.4 µM in the assay with IGROV1 ovarian; above 100 µM in the assay with A498 renal. Further, the TGI in the assay on CAKI-1 renal and with MDA-N was above 100 µM in each case.

For `COc1nc(NC2OCC(OC(C)=O)C(OC(C)=O)C2OC(C)=O)c(N=C(C)C(C)=O)c(=O)n1C` (stereo not drawn), the total growth inhibition concentration (TGI) with OVCAR-5 ovarian, in the assay with SN12C renal, with SF-268 CNS, with HL-60(TB) leukemia, with IGROV1 ovarian and with A498 renal was above 100 µM throughout. Also, the TGI with CAKI-1 renal and in the assay on OVCAR-4 ovarian was above 100 µM each time.

As to `CCCCCCc1cc2cc(C(=O)Nc3cccc(C(F)(F)F)c3)c(=N)oc2cc1O`, the TGI in the assay with OVCAR-5 ovarian was determined as 69.7 µM; in the assay on SN12C renal, 3.86 µM; with SF-268 CNS, 19.1 µM; with HL-60(TB) leukemia it was 6.98 µM; in the assay with IGROV1 ovarian, 11.1 µM; in the assay on A498 renal, 14 µM. Further, the TGI in the assay with NCI/ADR-RES ovarian stood at 7.42 µM; in the assay with CAKI-1 renal, 11.5 µM; with OVCAR-4 ovarian, 14.3 µM.

Regarding `O=c1[nH]c2cccccc-2c1-c1nc2ccccc2[nH]1`, the TGI is above 100 µM in the assay with OVCAR-5 ovarian; above 100 µM in the assay on SN12C renal; 45.3 µM in the assay with SF-268 CNS; above 100 µM in the assay on HL-60(TB) leukemia; above 100 µM with IGROV1 ovarian; above 100 µM with CAKI-1 renal. For the same compound, the TGI with OVCAR-4 ovarian turned out to be 51.9 µM.

With `CC1(C)CC(=O)C2=C(C1)OC1=C(CC(C)(C)CC1=O)C2c1ccccc1Cl` (stereo not drawn), the TGI with OVCAR-5 ovarian, with SN12C renal, in the assay on SF-268 CNS, in the assay on HL-60(TB) leukemia, in the assay on IGROV1 ovarian and with A498 renal was above 100 µM in each case. Also, the TGI in the assay with NCI/ADR-RES ovarian, with CAKI-1 renal and in the assay on OVCAR-4 ovarian was above 100 µM throughout.

For the compound `COc1ccc2[nH]c3c(C)c4ccnc(NCCCN(C)CCCNC(=O)NCCCN(C)CCCNc5nccc6c(C)c7[nH]c8ccc(OC)cc8c7c(C)c56)c4c(C)c3c2c1`, the concentration for total growth inhibition (TGI) in the assay on OVCAR-5 ovarian amounted to 4.13 µM; in the assay on SN12C renal, 2.91 µM; in the assay on SF-268 CNS, 3.25 µM; in the assay with HL-60(TB) leukemia it was 1.2 µM; with IGROV1 ovarian it was 2.05 µM; in the assay on A498 renal, 5 µM. Also, the figures for the TGI in the assay with NCI/ADR-RES ovarian, with CAKI-1 renal and in the assay with OVCAR-4 ovarian were above 50 µM, 3.34 µM and 7.83 µM, respectively.

Regarding `COc1ccccc1C1C(Cl)C(=O)N1NC(=O)Cc1ccccc1` (stereo not drawn), the TGI in the assay with OVCAR-5 ovarian, in the assay on SN12C renal, with SF-268 CNS, with HL-60(TB) leukemia, with IGROV1 ovarian and in the assay on CAKI-1 renal was above 100 µM each time. The TGI with OVCAR-4 ovarian is above 100 µM.

On to `CCC1OC(=O)C(C)C(OC2CC(C)(O)C(O)C(C)O2)C(C)C(O)C(C)(O)CC(C)C(=O)C(C)C(O)C1C` (stereo not drawn), for which the TGI in the assay with OVCAR-5 ovarian, in the assay with SN12C renal, with SF-268 CNS, in the assay with HL-60(TB) leukemia, with IGROV1 ovarian and in the assay on A498 renal was above 300 µM each time. For the same compound, the TGI in the assay on NCI/ADR-RES ovarian, in the assay on CAKI-1 renal and in the assay on OVCAR-4 ovarian was above 300 µM in each case.

Consider `COc1ccc2c(c1)CCC1C2CCC2(C)C1CC[C@@]2(O)CNC(=O)/C=C/c1ccc(O)c(O)c1` (stereo partly drawn), for which the GI50 was 16.5 µM in the assay on OVCAR-5 ovarian; 2570 nM with SN12C renal; 2970 nM in the assay with SF-268 CNS; 595 nM in the assay on HL-60(TB) leukemia; 937 nM in the assay on IGROV1 ovarian; 18.8 µM in the assay on A498 renal. Further, the GI50 in the assay with NCI/ADR-RES ovarian is 2120 nM; in the assay on CAKI-1 renal it was 2680 nM; with OVCAR-4 ovarian, 3.02 µM. The TGI in the assay on OVCAR-5 ovarian was above 100 µM; in the assay with SN12C renal, 8.84 µM; in the assay on SF-268 CNS, above 100 µM; in the assay on HL-60(TB) leukemia it was 3.97 µM; in the assay on IGROV1 ovarian, 3.37 µM; in the assay with A498 renal, 39.8 µM. The total growth inhibition concentration (TGI) in the assay on NCI/ADR-RES ovarian was 5.83 µM; with CAKI-1 renal, above 100 µM; in the assay on OVCAR-4 ovarian, above 100 µM.
